Laboratory results published in article PMC7340670, “Phase I study of TAS-115, a novel oral multi-kinase inhibitor, in patients with advanced solid tumors” (Investigational New Drugs, 2019).
“Also recorded” adds a separate entry of the source.

Test system: patients with advanced solid tumors
Experiment: Phase I study (JapicCTI-132333): safety, tolerability, DLT, MTD, RP2D
Type: in vivo
Protocol: This is an open-label, nonrandomized, dose-escalation study conducted at five sites in Japan. The study has three parts: a dose-escalation cohort using a traditional 3 + 3 design (part 1), a dosing schedule investigation cohort (part 2), and an expansion cohort to assess the safety at the MTD or lower doses among more patients (expansion part).
For each dose level in part 1, three to six patients were enrolled. DLTs were evaluated during the first cycle. […] The study drug was orally administered under empty stomach conditions (1 h before or 2 h after a meal) with a cup of water. […] In the expansion part, ≤MTD was investigated for exposure and safety.
All patients in parts 1 and 2 were required to be hospitalized for cycle 1 in order to observe AE. Patients continued to receive the study drug until disease progression or intolerable toxicity. […] The number of dose reductions was up to 2, and the minimum dose was 100 mg/day. […]

[1] = Part 1, 200–800 mg/day, SID (N = 21), patients (%)
[2] = Part 2 + Expansion part, 450 or 650 mg/day, 5-on/2-off (N = 61), patients (%)
[3] = part 2 and expansion part (N = 61)

## CNC(=O)c1cc2c(Oc3ccc(NC(=S)NC(=O)Cc4ccccc4)cc3F)ccnc2cc1OC [TAS-115]
650 mg/day, early expansion part
  CRPC patients with AEs requiring dose reduction: five of six
[1]
  Treatment-related adverse events: Alanine aminotransferase increased, Any Grade: 11 (52.4)
  Treatment-related adverse events: Alanine aminotransferase increased, ≥ Grade 3: 0 (0.0)
  Treatment-related adverse events: Amylase increased, Any Grade: 8 (38.1)
  Treatment-related adverse events: Amylase increased, ≥ Grade 3: 3 (14.3)
  Treatment-related adverse events: Anemia, Any Grade: 2 (9.5)
  Treatment-related adverse events: Anemia, ≥ Grade 3: 2 (9.5)
  Treatment-related adverse events: Any Events, Any Grade: 21 (100.0)
  Treatment-related adverse events: Any Events, ≥ Grade 3: 13 (61.9)
  Treatment-related adverse events: Aspartate aminotransferase increased, Any Grade: 15 (71.4)
  Treatment-related adverse events: Aspartate aminotransferase increased, ≥ Grade 3: 0 (0.0)
  Treatment-related adverse events: Decreased appetite, Any Grade: 7 (33.3)
  Treatment-related adverse events: Decreased appetite, ≥ Grade 3: 1 (4.8)
  Treatment-related adverse events: Diarrhea, Any Grade: 3 (14.3)
  Treatment-related adverse events: Diarrhea, ≥ Grade 3: 0 (0.0)
  Treatment-related adverse events: Edema, Any Grade: 6 (28.6)
  Treatment-related adverse events: Edema, ≥ Grade 3: 0 (0.0)
  Treatment-related adverse events: Face edema, Any Grade: 6 (28.6)
  Treatment-related adverse events: Face edema, ≥ Grade 3: 0 (0.0)
  Treatment-related adverse events: Fatigue, Any Grade: 10 (47.6)
  Treatment-related adverse events: Fatigue, ≥ Grade 3: 0 (0.0)
  Treatment-related adverse events: Hypophosphatemia, Any Grade: 6 (28.6)
  Treatment-related adverse events: Hypophosphatemia, ≥ Grade 3: 5 (23.8)
  Treatment-related adverse events: Leukocytopenia, Any Grade: 8 (38.1)
  Treatment-related adverse events: Leukocytopenia, ≥ Grade 3: 2 (9.5)
  Treatment-related adverse events: Lipase increased, Any Grade: 6 (28.6)
  Treatment-related adverse events: Lipase increased, ≥ Grade 3: 5 (23.8)
  Treatment-related adverse events: Nausea, Any Grade: 7 (33.3)
  Treatment-related adverse events: Nausea, ≥ Grade 3: 0 (0.0)
  Treatment-related adverse events: Neutropenia, Any Grade: 8 (38.1)
  Treatment-related adverse events: Neutropenia, ≥ Grade 3: 3 (14.3)
  Treatment-related adverse events: Rash, Any Grade: 12 (57.1)
  Treatment-related adverse events: Rash, ≥ Grade 3: 2 (9.5)
  Treatment-related adverse events: Thrombocytopenia, Any Grade: 8 (38.1)
  Treatment-related adverse events: Thrombocytopenia, ≥ Grade 3: 1 (4.8)
  Treatment-related adverse events: Vomiting, Any Grade: 4 (19.0)
  Treatment-related adverse events: Vomiting, ≥ Grade 3: 0 (0.0)
[2]
  Treatment-related adverse events: Alanine aminotransferase increased, Any Grade: 23 (37.7)
  Treatment-related adverse events: Alanine aminotransferase increased, ≥ Grade 3: 1 (1.6)
  Treatment-related adverse events: Amylase increased, Any Grade: 10 (16.4)
  Treatment-related adverse events: Amylase increased, ≥ Grade 3: 1 (1.6)
  Treatment-related adverse events: Anemia, Any Grade: 21 (34.4)
  Treatment-related adverse events: Anemia, ≥ Grade 3: 9 (14.8)
  Treatment-related adverse events: Any Events, Any Grade: 60 (98.4)
  Treatment-related adverse events: Any Events, ≥ Grade 3: 47 (77.0)
  Treatment-related adverse events: Aspartate aminotransferase increased, Any Grade: 31 (50.8)
  Treatment-related adverse events: Aspartate aminotransferase increased, ≥ Grade 3: 4 (6.6)
  Treatment-related adverse events: Decreased appetite, Any Grade: 26 (42.6)
  Treatment-related adverse events: Decreased appetite, ≥ Grade 3: 6 (9.8)
  Treatment-related adverse events: Diarrhea, Any Grade: 14 (23.0)
  Treatment-related adverse events: Diarrhea, ≥ Grade 3: 0 (0.0)
  Treatment-related adverse events: Edema, Any Grade: 10 (16.4)
  Treatment-related adverse events: Edema, ≥ Grade 3: 0 (0.0)
  Treatment-related adverse events: Face edema, Any Grade: 11 (18.0)
  Treatment-related adverse events: Face edema, ≥ Grade 3: 0 (0.0)
  Treatment-related adverse events: Fatigue, Any Grade: 27 (44.3)
  Treatment-related adverse events: Fatigue, ≥ Grade 3: 1 (1.6)
  Treatment-related adverse events: Hypophosphatemia, Any Grade: 20 (32.8)
  Treatment-related adverse events: Hypophosphatemia, ≥ Grade 3: 13 (21.3)
  Treatment-related adverse events: Leukocytopenia, Any Grade: 18 (29.5)
  Treatment-related adverse events: Leukocytopenia, ≥ Grade 3: 7 (11.5)
  Treatment-related adverse events: Lipase increased, Any Grade: 9 (14.8)
  Treatment-related adverse events: Lipase increased, ≥ Grade 3: 4 (6.6)
  Treatment-related adverse events: Nausea, Any Grade: 26 (42.6)
  Treatment-related adverse events: Nausea, ≥ Grade 3: 1 (1.6)
  Treatment-related adverse events: Neutropenia, Any Grade: 21 (34.4)
  Treatment-related adverse events: Neutropenia, ≥ Grade 3: 15 (24.6)
  Treatment-related adverse events: Rash, Any Grade: 15 (24.6)
  Treatment-related adverse events: Rash, ≥ Grade 3: 1 (1.6)
  Treatment-related adverse events: Thrombocytopenia, Any Grade: 19 (31.1)
  Treatment-related adverse events: Thrombocytopenia, ≥ Grade 3: 9 (14.8)
  Treatment-related adverse events: Vomiting, Any Grade: 19 (31.1)
  Treatment-related adverse events: Vomiting, ≥ Grade 3: 1 (1.6)
SID, 5-on/2-off for 21 days per cycle, estimated
  recommended phase II dose (RP2D): 650 mg
Any study part, during treatment or within 28 days of the last dose
  treatment-related death: No treatment-related death was observed
Cohorts 650 mg and 800 mg in part 1
  patients with TRAEs leading to dose interruption: All the patients
Expansion part
  Serious AEs: thirty one patients
  Serious TRAEs: decreased appetite (three patients), nausea (two patients), interstitial lung disease, rash, enterocolitis, fatigue, thrombocytopenia, and pyrexia (one patient each)
Expansion part (650 mg), not considered related to TAS-115
  AEs resulted in death: hepatic failure, disease progression and respiratory failure occurred in one patient each
Part 1
  Serious AEs: seven patients
  Serious TRAEs: tumor hemorrhage and decreased appetite (one patient, 650 mg each), thrombocytopenia (one patient, 800 mg)
  TRAEs that led to treatment discontinuation: rash (one patient, 800 mg)
Part 1 (N = 21)
  Grade ≥3 TRAEs: 13 patients
Part 1, 200 mg SID (N=3)
  Treatment-related adverse events: Any Events, Total: 3 (100.0) N (%)
  Treatment-related adverse events: Any Events, ≥ Grade 3: 1 (33.3) N (%)
  Treatment-related adverse events: Investigations, Total: 2 (66.7) N (%)
  Treatment-related adverse events: Investigations, ≥ Grade 3: 1 (33.3) N (%)
Part 1, 300 mg SID (N=3)
  Treatment-related adverse events: Any Events, Total: 3 (100.0) N (%)
  Treatment-related adverse events: Any Events, ≥ Grade 3: 2 (66.7) N (%)
  Treatment-related adverse events: Investigations, Total: 2 (66.7) N (%)
  Treatment-related adverse events: Investigations, ≥ Grade 3: 2 (66.7) N (%)
Part 1, 450 mg SID (N=3)
  Treatment-related adverse events: Any Events, Total: 3 (100.0) N (%)
  Treatment-related adverse events: Any Events, ≥ Grade 3: 2 (66.7) N (%)
  Treatment-related adverse events: Investigations, Total: 3 (100.0) N (%)
  Treatment-related adverse events: Investigations, ≥ Grade 3: 2 (66.7) N (%)
Part 1, 650 mg SID
  treatment interruption during cycle 1: all patients who received 650 mg SID required treatment interruption; also recorded: all patients who received 650 mg SID had treatment interruption
Part 1, 650 mg SID (N=6)
  Treatment-related adverse events: Any Events, Total: 6 (100.0) N (%)
  Treatment-related adverse events: Any Events, ≥ Grade 3: 5 (83.3) N (%)
  Treatment-related adverse events: Investigations, Total: 6 (100.0) N (%)
  Treatment-related adverse events: Investigations, ≥ Grade 3: 3 (50.0) N (%)
Part 1, 800 mg SID (N=6)
  Treatment-related adverse events: Any Events, Total: 6 (100.0) N (%)
  Treatment-related adverse events: Any Events, ≥ Grade 3: 3 (50.0) N (%)
  Treatment-related adverse events: Investigations, Total: 4 (66.7) N (%)
  Treatment-related adverse events: Investigations, ≥ Grade 3: 1 (16.7) N (%)
Part 1, 200–800 mg SID
  dose dependence of TRAEs: no dose-dependent increase in the incidence and grade of TRAEs was observed
Part 1, 200–800 mg SID, 21 patients
  DLTs overall: Three dose-limiting toxicities; also recorded: three DLTs
Part 1, SID, 21 days per cycle, granule formulation
  maximum tolerated dose (MTD): 650 mg
Part 1, cycle 1, N = 6
  DLTs at 650 mg SID: grade 3 rash in one patient
  DLTs at 800 mg SID: grade 3 thrombocytopenia with bleeding and grade 3 rash each in one patient
Part 2
  Serious AEs: two patients
  Serious TRAEs: peritonitis (one patient)
Part 2, 650 mg SID 5-on/2-off
  treatment interruption in cycle 1: no patients required treatment interruption
Part 2, cycle 1, six patients
  DLTs at 650 mg SID 5-on/2-off: No DLTs were observed; also recorded: no DLTs were reported
Part 2 and expansion part
  TRAEs that led to treatment discontinuation: rash (two patients, 650 mg), pyrexia, peritonitis and neutropenia (one patient each, 650 mg)
[3]
  TRAE anemia, any grade: 34.4%
  TRAE decreased appetite, any grade: 42.6%
  TRAE fatigue, any grade: 44.3%
  TRAE hypophosphatemia, any grade: 32.8%
  TRAE increased ALT, any grade: 37.7%
  TRAE increased AST, any grade: 50.8%
  TRAE nausea, any grade: 42.6%
  TRAE neutropenia, any grade: 34.4%
  TRAE thrombocytopenia, any grade: 31.1%
  TRAE vomiting, any grade: 31.1%
  grade ≥3 TRAE anemia: 14.8%
  grade ≥3 TRAE hypophosphatemia: 21.3%
  grade ≥3 TRAE leukocytopenia: 11.5%
  grade ≥3 TRAE neutropenia: 24.6%
  grade ≥3 TRAE thrombocytopenia: 14.8%
Part 2 and the expansion part
  frequency of TRAEs leading to dose interruption: approximately 77%
Patients with advanced solid tumors, up to 650 mg 5-on/2-off
  tolerability: generally well tolerated
